Results taken from ChEMBL document CHEMBL4699612, “Discovery of thiosemicarbazone-containing compounds with potent anti-proliferation activity against drug-resistant K562/A02 cells” (Bioorg Med Chem Lett, 2020).
pIC50: −log10 of the molar value.

Test system: K562
Assay: Antiproliferative activity against human K562 cells by MTT assay
Type: functional, cell-based

Row | Compound | pIC50
1 | O=C(CCCCCNC(=S)N/N=C(\c1ccccc1)c1ccccc1F)NO | 5.33
2 | C/C(=N\NC(=S)NCCCC(=O)NO)c1ccc([N+](=O)[O-])cc1 | < 5.00
3 | Cc1ccccc1/C(=N/NC(=S)NCCCCCC(=O)NO)c1ccccc1 | 5.45
4 | C/C(=N\NC(=S)NCCCC(=O)NO)c1cccc([N+](=O)[O-])c1 | < 5.00
5 | COc1ccccc1/C(C)=N/NC(=S)NCCCC(=O)NO | < 5.00

More lines, now with the values ahead:

Row | pIC50 | Compound
6 | 5.42 | C/C(=N\NC(=S)NCCCCCC(=O)NO)c1cccc(C)c1
7 | 5.36 | Cc1ccc(/C(=N/NC(=S)NCCCCCC(=O)NO)c2ccccc2)cc1
8 | 5.67 | O=C(CCCCCNC(=S)N/N=C(\c1ccccc1)c1ccccn1)NO
9 | 5.63 | O=C(CCCCCNC(=S)N/N=C(\c1ccccc1)c1ccccc1[N+](=O)[O-])NO
10 | 5.72 | C/C(=N\NC(=S)NCCCCCC(=O)NO)c1ccc(F)cc1
11 | 5.90 | C/C(=N\NC(=S)NCCCCCC(=O)NO)c1cccc(Br)c1

Test system: K562/A02
Assay: Antiproliferative activity against human K562/A02 cells overexpressing P-gp by MTT assay
Type: functional, cell-based

Row | Compound | pIC50
12 | O=C(CCCCCNC(=S)N/N=C(\c1ccccc1)c1ccccc1F)NO | 5.22
13 | C/C(=N\NC(=S)NCCCC(=O)NO)c1ccc([N+](=O)[O-])cc1 | < 5.00
14 | Cc1ccccc1/C(=N/NC(=S)NCCCCCC(=O)NO)c1ccccc1 | 5.37
15 | C/C(=N\NC(=S)NCCCC(=O)NO)c1cccc([N+](=O)[O-])c1 | < 5.00
16 | COc1ccccc1/C(C)=N/NC(=S)NCCCC(=O)NO | < 5.00

The next compounds have a higher pIC50 than those just listed; values first:

Row | pIC50 | Compound
17 | 5.45 | C/C(=N\NC(=S)NCCCCCC(=O)NO)c1cccc(C)c1
18 | 5.50 | Cc1ccc(/C(=N/NC(=S)NCCCCCC(=O)NO)c2ccccc2)cc1
19 | 5.50 | O=C(CCCCCCC(=O)Nc1ccccc1)NO [VORINOSTAT]
20 | 5.69 | O=C(CCCCCNC(=S)N/N=C(\c1ccccc1)c1ccccn1)NO
21 | 5.88 | O=C(CCCCCNC(=S)N/N=C(\c1ccccc1)c1ccccc1[N+](=O)[O-])NO
22 | 5.99 | C/C(=N\NC(=S)NCCCCCC(=O)NO)c1ccc(F)cc1
23 | 6.28 | C/C(=N\NC(=S)NCCCCCC(=O)NO)c1cccc(Br)c1

Test system: not listed separately
Assay: Resistance index, ratio of IC50 for human K562/A02 cells to IC50 for human K562 cells
Type: functional
Set-up: reference not given here

Row | Compound | Ratio IC50
24 | O=C(CCCCCNC(=S)N/N=C(\c1ccccc1)c1ccccc1[N+](=O)[O-])NO | 0.56
25 | O=C(CCCCCNC(=S)N/N=C(\c1ccccc1)c1ccccc1F)NO | 1.3
26 | C/C(=N\NC(=S)NCCCCCC(=O)NO)c1cccc(Br)c1 | 0.41
27 | Cc1ccc(/C(=N/NC(=S)NCCCCCC(=O)NO)c2ccccc2)cc1 | 0.73
28 | C/C(=N\NC(=S)NCCCCCC(=O)NO)c1ccc(F)cc1 | 0.54
29 | O=C(CCCCCNC(=S)N/N=C(\c1ccccc1)c1ccccn1)NO | 0.95
30 | Cc1ccccc1/C(=N/NC(=S)NCCCCCC(=O)NO)c1ccccc1 | 1.2
31 | C/C(=N\NC(=S)NCCCCCC(=O)NO)c1cccc(C)c1 | 0.93

Target: Histone deacetylase 1 (Homo sapiens, UniProt Q13547)
Assay: Inhibition of recombinant human HDAC1 using Boc-Lys(Ac)-AMC as substrate incubated for 60 mins by fluorimetric assay

Histone deacetylase 1, sequence (Q13547 whole entry): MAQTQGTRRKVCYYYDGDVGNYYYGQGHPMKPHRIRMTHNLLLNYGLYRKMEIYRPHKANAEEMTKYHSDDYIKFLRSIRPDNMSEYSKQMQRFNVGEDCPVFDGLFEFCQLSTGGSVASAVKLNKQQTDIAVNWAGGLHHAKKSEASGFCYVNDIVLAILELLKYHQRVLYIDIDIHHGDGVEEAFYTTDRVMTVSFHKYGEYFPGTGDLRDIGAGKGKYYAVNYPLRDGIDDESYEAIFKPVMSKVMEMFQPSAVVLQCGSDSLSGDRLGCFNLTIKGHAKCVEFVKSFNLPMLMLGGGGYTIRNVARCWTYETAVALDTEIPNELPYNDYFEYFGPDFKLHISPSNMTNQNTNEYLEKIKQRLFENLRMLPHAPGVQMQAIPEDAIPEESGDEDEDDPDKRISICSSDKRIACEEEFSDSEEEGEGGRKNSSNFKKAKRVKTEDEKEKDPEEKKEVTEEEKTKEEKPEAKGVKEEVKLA

Row | Compound | pIC50
32 | C/C(=N\NC(=S)NCCCCCC(=O)NO)c1cccc(Br)c1 | 7.26
33 | C/C(=N\NC(=S)NCCCCCC(=O)NO)c1ccc(F)cc1 | 7.16

Target: T1, Protein deacetylase HDAC6 (Homo sapiens, UniProt Q9UBN7)
T1 sequence (Q9UBN7 whole entry): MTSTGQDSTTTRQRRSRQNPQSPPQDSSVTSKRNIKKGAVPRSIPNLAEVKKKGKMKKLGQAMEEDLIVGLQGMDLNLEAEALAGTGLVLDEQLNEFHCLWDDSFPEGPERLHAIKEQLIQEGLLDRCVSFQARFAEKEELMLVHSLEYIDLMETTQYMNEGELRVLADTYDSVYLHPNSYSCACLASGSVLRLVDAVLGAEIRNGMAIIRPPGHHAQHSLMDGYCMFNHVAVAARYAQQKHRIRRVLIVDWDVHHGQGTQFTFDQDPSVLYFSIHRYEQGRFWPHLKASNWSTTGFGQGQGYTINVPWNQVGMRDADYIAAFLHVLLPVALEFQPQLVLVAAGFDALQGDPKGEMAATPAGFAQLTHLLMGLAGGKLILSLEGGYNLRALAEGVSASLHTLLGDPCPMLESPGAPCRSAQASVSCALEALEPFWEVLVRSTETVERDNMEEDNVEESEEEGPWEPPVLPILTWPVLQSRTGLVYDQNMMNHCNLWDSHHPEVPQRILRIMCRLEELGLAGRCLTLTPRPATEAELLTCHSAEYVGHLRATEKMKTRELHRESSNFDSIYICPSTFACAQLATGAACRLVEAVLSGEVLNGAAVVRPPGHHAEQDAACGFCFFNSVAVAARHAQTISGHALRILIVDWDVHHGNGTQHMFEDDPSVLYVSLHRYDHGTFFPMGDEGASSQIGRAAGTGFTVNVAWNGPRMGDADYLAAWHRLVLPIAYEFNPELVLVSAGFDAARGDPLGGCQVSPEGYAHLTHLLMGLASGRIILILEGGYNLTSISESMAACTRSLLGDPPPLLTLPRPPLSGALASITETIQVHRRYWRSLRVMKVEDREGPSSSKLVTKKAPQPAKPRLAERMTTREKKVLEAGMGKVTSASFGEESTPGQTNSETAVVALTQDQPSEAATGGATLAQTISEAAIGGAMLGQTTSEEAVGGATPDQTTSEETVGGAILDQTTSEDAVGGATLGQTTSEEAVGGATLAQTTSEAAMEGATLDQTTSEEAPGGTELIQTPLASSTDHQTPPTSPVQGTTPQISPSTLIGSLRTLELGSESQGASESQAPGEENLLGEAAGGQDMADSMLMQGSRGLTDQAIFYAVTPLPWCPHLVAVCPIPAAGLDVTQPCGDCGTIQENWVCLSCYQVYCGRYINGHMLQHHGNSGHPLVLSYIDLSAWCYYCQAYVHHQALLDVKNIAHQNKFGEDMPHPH
Assay: Inhibition of recombinant human HDAC6 using Boc-Lys(Ac)-AMC as substrate incubated for 60 mins by fluorimetric assay

Row | Compound | pIC50
34 | C/C(=N\NC(=S)NCCCCCC(=O)NO)c1cccc(Br)c1 | 7.42
35 | C/C(=N\NC(=S)NCCCCCC(=O)NO)c1ccc(F)cc1 | 7.20

Target: T2, Histone deacetylase 8 (Homo sapiens, UniProt Q9BY41)
T2 sequence (Q9BY41 whole entry): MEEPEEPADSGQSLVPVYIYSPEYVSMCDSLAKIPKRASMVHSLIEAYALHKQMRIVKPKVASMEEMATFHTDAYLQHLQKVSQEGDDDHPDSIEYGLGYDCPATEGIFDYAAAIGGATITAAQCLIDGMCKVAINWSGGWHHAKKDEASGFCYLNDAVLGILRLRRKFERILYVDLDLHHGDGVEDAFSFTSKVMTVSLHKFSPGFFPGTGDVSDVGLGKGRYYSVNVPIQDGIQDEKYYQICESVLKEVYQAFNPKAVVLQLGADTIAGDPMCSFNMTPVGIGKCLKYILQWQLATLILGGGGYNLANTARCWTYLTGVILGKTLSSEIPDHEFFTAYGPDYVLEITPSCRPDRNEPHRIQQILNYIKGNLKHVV
Assay: Inhibition of recombinant human HDAC8 using Boc-Lys(Ac)-AMC as substrate incubated for 60 mins by fluorimetric assay

Row | Compound | pIC50
36 | C/C(=N\NC(=S)NCCCCCC(=O)NO)c1cccc(Br)c1 | < 5.30
37 | C/C(=N\NC(=S)NCCCCCC(=O)NO)c1ccc(F)cc1 | < 5.30
